From paper PMC5814186, “Identification and characterization of novel enhanced cell penetrating peptides for anti-cancer cargo delivery” (Oncotarget, 2017)
No end group written: not given here.

Key:
[1] = Stability to protease degradation in human serum; conditions: 37°C, different periods of time up to 24 h, triplicate; for stability in human serum (percentage of intact peptide), shuttles associated to the cargo PP2A/SET, compared to the shuttle without cargo: MS (MALDI-TOF)
Description: We further analyzed the stability to proteases degradation of the shuttles in human serum upon incubation at 37°C for different periods of time. All the shuttles were incubated with human serum and the resistance to proteases degradation analyzed by HPLC-MS.
Figure 7 Stability of the new generated shuttles in human serum (A) The shuttles were incubated at 37°C in human serum for different periods of time and their integrity (percentage of intact peptide) was analyzed by mass spectrometry (MS). Every measurement was performed in triplicate. Standard deviation is shown. (B) The shuttles Tat, Penetatin and R8 were incubated as above and the integrity was analyzed by MS. Every measurement was performed in triplicate.
For this, the new generated bi-functional peptides (shuttles associated to the cargo PP2A/SET) were incubated with human serum for different periods of time.
Figure 9 Stability in human serum of the shuttles associated to a cargo (PP2A/SET binding site) The shuttles associated to the cargo PP2A/SET were incubated at 37°C in human serum for different periods of time and their integrity (percentage of intact peptide) was analyzed by mass spectrometry (MS). Measurements were performed in triplicate and standard deviation is shown.
Peptides were incubated at 37°C in 250 ml of human serum for different periods of time. Samples were collected and peptides degradation stopped by freezing. Peptides were extracted from samples using the Proteo Miner Protein Enrichment System (Bio-Rad). Peptide integrity (percentage of intact peptide) was analyzed by mass spectrometry (MS) using MALDI-TOF (Brucker Autoflex II) following their standard protocols. Measurements were performed in triplicate. MS data were analyzed using appropriate software (Clinprot tools, Flex analysis, Brucker).

[2] = cited from earlier work
Description: Electrostatic interactions between the […] in the cell membrane surface are important for the internalization. […] When tryptophan residues were replaced by leucine residues, the peptide was not internalized.

[3] = cited from earlier work; remark: listed apart in the source
Description: We have recently published the use of a CPP named Mut3DPT [15, 16]. […] We decided to generate new CPPs with enhanced penetration and stability, compared to the original Mut3DPT shuttle and keeping equilibrium among penetration, solubility and toxicity.

Compound	stability in human serum (percentage of intact peptide), shuttles associated to the cargo PP2A/SET, compared to the shuttle without cargo [1]	other results
N=C(N)NCCC[C@H](NC(=O)[C@H](CCCNC(=N)N)NC(=O)[C@H](CCCNC(=N)N)NC(=O)[C@H](CCCNC(=N)N)NC(=O)[C@H](CCCNC(=N)N)NC(=O)[C@H](CCCNC(=N)N)NC(=O)[C@H](CCCNC(=N)N)NC(=O)[C@@H](N)CCCNC(=N)N)C(=O)O [R8]	–	stability in human serum (percentage of intact peptide), shuttles without cargo ([1]; MS (MALDI-TOF; text HPLC-MS)): degraded by serum proteases and almost not detected by HPLC-MS upon 24 h of incubation
KKKKKWKKWKKKETVTLLVALKVRYRERIT [Mut7DPT-PP2A/SET]	does not significantly modify the stability	–
KKWKKWKKWKKETVTLLVALKVRYRERIT [Mut5DPT-PP2A/SET]	slightly degradation upon 24 h	–
RRWRRWRRWRRETVTLLVALKVRYRERIT [Mut6DPT-PP2A/SET]	does not significantly modify the stability	–
RRWWRRWRR [RW9, literature CPP RW9 (…)]	–	cellular uptake / internalization [2]: good cellular uptake
VKKKKIKAEIKI [Mut3DPT]	–	resistance to protease degradation [3]: favourable parameters of resistance to protease degradation
